# Results taken from patent publication US20110082087A1, “COMPOUNDS FOR TREATING PAIN” (Edificio ICAT, priority 2008, published 2011).
# What was measured:
# rats (Wister, male) [1] = assay: Tail Flick test; type: in vivo, rat
# Experimental: In vivo behavioural anti-nociception tests were carried out in rats (Wister, male). Unless otherwise stated, compounds were administered by intra-peritoneal (i.p.) injection. For most assays, the Tail Flick and the Hot Plate tests were used.
# The tail-flick test (D'Amour F. E., Smith D. L. 1941. A method for determining the loss of pain sensation. J Pharmacol Exp Ther 1941; 72:74-79) is a standard investigative tool for pain and analgesia assessment in rodents. It is based on a spinal reflex response of the tail to radiant heat. Pain sensitivity in rats was measured as they responded to the application of radiant heat to a small area of their tails. The rat's tail was placed over a window located on a platform and subjected to irradiation by an intense light beam (10 W). When the rat feels discomfort, it flicks its tail which automatically stops the timer. The reaction time from activation of the light beam to the tail flick is automatically presented on a digital display. A cut-off time of 24 s was applied. Animal reaction time is a measurement of animal resistance to pain and is used to measure efficacy of analgesics.
# rats = assay: Formalin test (paw jerks); type: in vivo, rat; conditions: acute and tonic-chronic phases; i.p. 10 min before 5% formalin s.c.
# Text: The formalin test was introduced as a model of tonic pain in 1977 (Dubuisson D., Dennis S. G. 1977. The formalin test: a quantitative study of the analgesic effect of morphine, meperidine and brain stem stimulation in rats and cats. Pain; 4:74-161). In rats, formalin generates an initial phase of activity (phase 1, acute), a quiescent interphase, and a second phase of activity (phase 2, tonic/chronic), and this is seen with spontaneous behaviors, firing of afferent neurons, and activity in dorsal horn neurons. Both active phases involve ongoing peripheral afferent neural activity; inflammation contributes to phase 2 activity and the interphase results from active inhibition. Within the spinal cord, formalin increases c-fos expression in neurons and causes activation of microglia, and these may contribute more prominently to longer term changes.
# We performed the formalin test due to its validity as a model to study central sensitization events at the spinal level after peripheral inflammatory states. The standard two types of nociception were analyzed; the short-lasting nociception caused by a direct effect on nociceptors followed by a long-lasting nociception due to inflammation. KTP-NH2 was administered i.p. 10 min previous to formalin injection. […] The paw jerks were videotaped and measured both in the acute and in the tonic-chronic phases. […]
# c-fos = assay: Formalin-induced c-fos expression in spinal cord dorsal horn (immunohistochemistry); type: in vivo, rat; conditions: formalin-treated rats
# monoarthritis rats = assay: CFA-induced monoarthritis, Hargreaves and Tail Flick tests; type: in vivo, rat
# Text: The subcutaneous intraplantar injection of complete Freund's adjuvant (CFA) into the local area of an animal can cause severe inflammatory pain around the injected area. This CFA-induced inflammatory pain has been widely used as a kind of pain model in the field of pain research since it was reported. Inflammatory pain was induced by an injection of complete Freund's adjuvant into the right hindpaw of the rats (S. H. Butler, F. Godefroy, J. M. Besson and J. Weilfugazza. 1992. A limited arthritic model for chronic pain studies in the rat. Pain, 48: 73-81). The paw withdrawal latency was used to assess the inflammatory pain according to the method of Hargreaves et al. (Hargreaves K, Dubner R, Brown F, Flores C, and Joris J. 1988. A new and sensitive method for measuring thermal nociception in cutaneous hyperalgesia. Pain 32: 77-88, 1988). The CFA-injected area of the right paw was placed on a constant-intensity radiant heat source and the time of paw-withdrawal latency was measured by observing the animal's paw-withdrawal response after applying initial heat to the left or right paws. Additionally, the Tail Flick test was performed in order to assess the secondary hyperalgesia.
# rats (Wister, male) [2] = assay: Hepatotoxicity markers in plasma; type: in vivo, rat
# Experimental: (§1) The toxicological studies were carried out with rats (Wister, male) injected i.p. once a day with 3.23 mg/100 g body mass during seven days.
# Liver is the major organ of toxicity. Blood samples were collected and the following hepatotoxicity markers were assayed in the plasma: • Alanine transaminase (ALT), • Aspartate transaminase (AST) • Alkaline phosphatase (ALP) • Total bilirubin (TBILI) • Gamma glutamyl transpeptidase (GGT)
# Increased levels of the liver enzymes ALT, AST, ALP and GGT in the plasma would indicate lesions in liver. Increased RBL would be a sign of faulty bilirubin production/hemolysis and/or bilirubin metabolism (in liver).
# rats (Wister, male) [3] = assay: Antioxidant capacity in plasma (ACW, ACL); type: in vivo, rat; conditions: i.p. once a day 3.23 mg/100 g for seven days
# Experimental: as §1
# Metabolization of KTP-NH2 in the organism might lead to an increase in its metabolite products and to the subsequent production of reactive oxygen species (ROS). As increased ROS levels are potentially harmful, KTP-NH2 potential to induce changes in antioxidant capacities in the plasma of animals was explored. Total antioxidant capacity of lipid-soluble (ACL) and water-soluble (ACW) constituents were determined.
# [4] = Metabolic stability in human liver microsomal preparation; type: in vitro ADME; conditions: liver microsomes; 1-hour incubation with human liver microsomal preparation; read-out: compound remained
# Text: Many compounds can never become a drug because they are rapidly metabolized in the liver. It is important to confirm that metabolic stability is adequate to the desired distribution of compound throughout the body.
# [5] = Cytotoxicity (LDH release and ATP); type: cell-based; conditions: human hepatocytes; LDH and ATP determination; read-out: LC50 (the source's name)
# Experimental: Cytotoxicity was assessed with a cell-based assay using human hepatocytes. Cell death was assayed by quantifying plasma membrane damage or rupture through measurement of the release of lactate dehydrogenase (LDH) (Legrand, C. et al. 1992. Lactate dehydrogenase (LDH) activity of the cultured eukaryotic cells as marker of the number of dead cells in the medium. J. Biotechnol. 25: 231-243), a stable cytoplasmic enzyme present in most cells. Determination of cell viability was performed by quantifying ATP (Cree I. A and Andreotti P. E. 1997. Measurement of cytotoxicity by ATP-based luminescence assay in primary cell cultures and cell lines. Toxicology in vitro, 11: 553-556), a marker for cell viability because it is present in all metabolically active cells and the concentration declines very rapidly when the cells undergo necrosis or apoptosis.
# [6] = Plasma serum stability of analogues; type: in vitro ADME; conditions: Human Serum; test concentration 400 uM; 1-hour incubation; read-out: Mean Parent Remaining (%)
# Experimental: These analogues were tested for plasma serum stability, in comparison with KTP-NH2.
structure (smiles),measurement,setting,value
"N=C(N)NCCC[C@H](NC(=O)[C@@H](N)Cc1ccc(O)cc1)C(N)=O [KTP-NH2, L-Tyr-L-Arg-NH2]",response after chronic administration,"rats (Wister, male) [1]; Tail Flick, 3.23 mg/100 g once a day for seven days vs single injection",very similar profile to the control
same,analgesic effect compared with ibuprofen,"rats (Wister, male) [1]; Tail Flick, i.p.",more durable effect
same,duration of anti-nociceptive response,"rats (Wister, male) [1]; Tail Flick, i.p., rat",45 min
same,smallest dose tested with statistical significance,"rats (Wister, male) [1]; Tail Flick, i.p., rat",2.45 mg for 100 g of body mass
same,analgesic efficacy after oral administration,"rats (Wister, male) [1]; Tail Flick, oral, rat",slight delay of the onset of effect
same,effect on tail flick latency,"rats (Wister, male) [1]; i.p., rat",clear anti-nociceptive response
same,analgesia after pretreatment with naloxone,"rats (Wister, male) [1]; tail-flick, naloxone 0.5 mg/100 g 10 min before, KTP-NH2 3 mg/100 g",completely antagonized
same,number of paw-jerks,rats,reduced significantly
same,formalin-induced c-fos protein expression in dorsal horn,c-fos,significantly decreased
same,analgesic effect in chronic inflammatory pain,monoarthritis rats,efficacy
same,GGT in plasma,"rats (Wister, male) [2]; i.p. once a day 3.23 mg/100 g for seven days","trace amounts, below the detection limit"
same,"hepatotoxicity markers AST, ALT, ALP, total bilirubin in plasma","rats (Wister, male) [2]; i.p. once a day 3.23 mg/100 g for seven days vs control",no toxic effects were detected
same,"basal antioxidant capacity in plasma (ACL, ACW)","rats (Wister, male) [3]",does not induce significant modifications
same,remaining at 1 h,[4],93%
same,CC50,[5],> 125 µM
same,"remaining at 1 h, 400 uM",[6],14%
